In data set [1] the test system is K562 (human chronic myelogenous leukemia cell line). Briefly: tumor cell proliferation, MTT or CCK8 assay, 72 h incubation. It counts as cell-based. To be noted: K562, 72 h, read-out: IC50 on tumor cell proliferation, K562. The procedure:
(§1) The heterocyclic alkynyl benzene compounds at different concentrations (1×10^−10˜1×10^−5M) were incubated for 72 hours individually applied to 6 cell lines K562 (human CML cell line), MOLT-4 (human ALL cell line), U937 (human CML cell line), MEG-01 (human CML cell line), L78 (human lung cancer cell line), Ba/F3-T315I (mice Pro-B cells transformed with Bcr-AblT315I and STI57′-resistant cell line). After incubation for 72 hrs, cell proliferation was then determined by MTT assay or CCK8 assay, and 4 hr incubation is further conducted, the absorbance at 570 nm (CCK8, 450 nm, 650 nm) was measured using enzyme Microplate Reader. […] Based on the inhibition potency of the heterocyclic alkynyl benzene compounds on the cell proliferation, IC50 values were calculated and summarized in the Table 1 and Table 2 (The compounds used were synthesized by Examples 1-40, and the compounds are marked with Drug No. series in Table 1).
(In general: Tetrazolium assays rely on reduction of a dye to a coloured formazan, in cell work by metabolically active cells.)

Data set [2] has as its system MEG-01 (Human megakaryoblastic leukaemia cell line). The data set is described as above. It counts as cell-based. To be noted: MEG-01, 72 h, read-out: IC50 on tumor cell proliferation, MEG-01. How it is done: as §1
Data set [3] has as its system MOLT-4 (Human acute lymphoblastic leukemia cell line). The description is as above. To be noted: MOLT-4, 72 h, read-out: IC50 on tumor cell proliferation, MOLT-4. It counts as cell-based. How it is done:
as §1

Data set [4] deals with U937 Cell line. Described as above. The following applies: Homo sapiens, read-out: IC50 on tumor cell proliferation, U937. Format: cell-based. The procedure:
as §1

Data set [5] has as its system K562R cells (imatinib-resistant cell line). The data set is described as above. To be noted: Homo sapiens, K-562R, read-out: IC50 on tumor cell proliferation, K562R cells. It counts as cell-based.
Data set [6] deals with BAF3-T315I cells (Ba/F3 cell line stably expressing BCR/ABL T315I) (Homo sapiens, UniProt P00519, T315I, cells depend on it). The description is as above. Format: cell-based, mice. How it is done:
The heterocyclic alkynyl benzene compounds at different concentrations (1×10^−10˜1×10^−5M) were incubated for 72 hours individually applied to 6 cell lines K562 (human CML cell line), MOLT-4 (human ALL cell line), U937 (human CML cell line), MEG-01 (human CML cell line), L78 (human lung cancer cell line), Ba/F3-T315I (mice Pro-B cells transformed with Bcr-AblT315I and STI57′-resistant cell line). After incubation for 72 hrs, cell proliferation was then determined by MTT assay or CCK8 assay, and 4 hr incubation is further conducted, the absorbance at 570 nm (CCK8, 450 nm, 650 nm) was measured using enzyme Microplate Reader.

Data set [7] concerns K562 cells (human CML cell line expressing native Bcr-Abl). Briefly: Xenograft model of K562 in nude mice, oral dosing. To be noted: for effect on tumor growth: 25 mg/kg po qd; for effect on body weight: po, qd. How it is done:
Tumor volume and body weight were monitored once every 2 days (In each group, the tumor volume and body weight at beginning of the day were recorded). Tumor volume was calculated as […]*a*b*b.L×W2/2 (a and b are the length and width of the tumor, respectively). […] The results were shown in Drawings as FIGS. 1, 2, 3, 4, 5, 6, 7 and 8.

Data set [8] can be described thus: Pharmacokinetics and bioavailability in rats. It counts as in vivo. To be noted: SD rats. In outline:
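Rats dosed, heparinized blood sampled at set times, plasma stored at -20 °C, acetonitrile-precipitated and analyzed by HPLC-MS. Compartmental and non-compartmental parameters derived; bioavailability from AUC.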

The mark [9] stands for this setting: read-out: IC50 on tumor cell proliferation, BAF3-T315I cells; Ba/F3 expressing BCR/ABL T315I, 72 h, Table 1.
Setting [10] is: Ba/F3 expressing BCR/ABL T315I, 72 h, Table 1; read-out: IC50 on tumor cell proliferation, BAF3-T315I cells.

Each structure is given as a SMILES string. “And” between values parts separate entries of the source, which are not always exact repeats. Equal values may be shown once. Where a name gives a salt, the structure may show the parent alone. Read-outs that look alike come from different tables or passages of the source.

`Cc1cn(-c2cc(NC(=O)c3ccc(C)c(C#Cc4cnc(Nc5ccccc5)nc4)c3)cc(C(F)(F)F)c2)cn1` [D809, 4-methyl-N-(3-(4-methyl-1H-imidazol-1-yl)-5-(trifluoromethyl)phenyl)-3-(2-(2-(phenylamino)pyrimidin-5-yl)ethynyl)benzamide]: the IC50 was greater than 100 nM in data set [1]; 115 nM in data set [2]; greater than 100 nM in data set [3]; greater than 100 nM in data set [4] (U-937, 72 h); 0.177 µM in data set [5]. For the same compound, in data set [6] (setting [9]), the GI50 was 0.102 µM and 0.0711 µM.

In the case of `Cc1cn(-c2cc(NC(=O)c3ccc(C)c(C#Cc4cnc5[nH]ncc5c4)c3)cc(C(F)(F)F)c2)cn1` [D767 mesylate salt, 3-(2-(1H-pyrazolo[3,4-b]pyridin-5-yl)ethynyl)-4-methyl-N-(3-(4-methyl-1H-imidazol-1-yl)-5-(trifluoromethyl)phenyl)benzamide], in data set [7], the “effect on tumor growth” value is listed as “completely inhibit the tumor growth” and the “effect on body weight” value is recorded as “did not cause the body weight loss”. Besides, in data set [8] (IV 5 mg/kg), the time to peak (Tmax) was found to be 0.033 h. Also, in data set [8] (IV 5 mg/kg, 5 mg/kg), the “AUC(0-∞)” value was determined as 59222.45 ng·h/mL, the maximum concentration (Cmax) came out at 14093.75 ng/mL and the T1/2 amounted to 4.471 h. For the same compound, in data set [8] (PO 25 mg/kg, 25 mg/kg), the “AUC(0-∞)” value worked out at 27850.615 ng·h/mL, the highest concentration (Cmax) is 2322.5 ng/mL, the T1/2 was determined as 5.949 h and the time of peak concentration (Tmax) came to 2.75 h. The “BA(% Oral bioavailability)” value in data set [8] (calculated according to AUC data, PO vs IV) is 9.4%.

For the compound `CNc1ncc(C#Cc2cc(C(=O)Nc3cc(-n4cnc(C)c4)cc(C(F)(F)F)c3)ccc2C)cn1` [D800 mesylate, 4-methyl-N-(3-(4-methyl-1H-imidazol-1-yl)-5-(trifluoromethyl)phenyl)-3-(2-(2-(methylamino)pyrimidin-5-yl)ethynyl)benzamide], in data set [7], the “effect on tumor growth” value was “completely inhibit the tumor growth” and the “effect on body weight” value is on record as “did not cause the body weight loss”.

Take `Cc1cn(-c2cc(NC(=O)c3ccc(C)c(C#Cc4cnc(NCCO)nc4)c3)cc(C(F)(F)F)c2)cn1` [D820, 3-(2-(2-(2-hydroxyethylamino)pyrimidin-5-yl)ethynyl)-4-methyl-N-(3-(4-methyl-1H-imidazol-1-yl)-5-(trifluoromethyl)phenyl)benzamide]: the IC50 in data set [1] was 1.37 nM; in data set [2] it was greater than 100 nM; in data set [3] it was 134 nM; in data set [4] (U-937, 72 h) it was greater than 100 nM; in data set [5], 0.0352 µM. The GI50 in data set [6] (setting [9]) came out at 0.276 µM.

Regarding `CCN(CC)c1ncc(C#Cc2cc(C(=O)Nc3cc(-n4cnc(C)c4)cc(C(F)(F)F)c3)ccc2C)cn1` [D807, 3-(2-(2-(diethylamino)pyrimidin-5-yl)ethynyl)-4-methyl-N-(3-(4-methyl-1H-imidazol-1-yl)-5-(trifluoromethyl)phenyl)benzamide], the IC50 in data set [1] (MTT or CCK8, nM) was 128 nM; in data set [2] (MTT or CCK8, nM), greater than 100 nM; in data set [3] (MTT or CCK8, nM), greater than 100 nM; in data set [4] (U-937, 72 h, MTT or CCK8, nM), 126 nM; in data set [5] (imatinib-resistant K562R), 14.1 µM. Also, the GI50 in data set [6] (setting [10]) came to 13.4 µM.

For the compound `Cc1ccc(C(=O)Nc2cc(-n3ccnc3)cc(C(F)(F)F)c2)cc1C#Cc1cnc2ccnn2c1` [D819, N-(3-(1H-imidazol-1-yl)-5-(trifluoromethyl)phenyl)-4-methyl-3-(2-(pyrazolo[1,5-a]pyrimidin-6-yl)ethynyl)benzamide], the IC50 was 1.5 nM in data set [1] (MTT or CCK8, nM); 122 nM in data set [2] (MTT or CCK8, nM); 146 nM in data set [3] (MTT or CCK8, nM); 2210 nM in data set [4] (U-937, 72 h, MTT or CCK8, nM); 0.146 µM in data set [5] (imatinib-resistant K562R). Besides, the GI50 in data set [6] (setting [10]) was found to be 3.12 µM.

As to `Cc1cn(-c2cc(NC(=O)c3ccc(C)c(C#Cc4cnc5ncnn5c4)c3)cc(C(F)(F)F)c2)cn1` [D798, 3-(2-([1,2,4]-triazolo[1,5-a]pyrimidin-6-yl)ethynyl)-4-methyl-N-(3-(4-methyl-1H-imidazol-1-yl)-5-(trifluoromethyl)phenyl)benzamide], the IC50 in data set [1] (MTT or CCK8, nM) is 34 nM; in data set [2] (MTT or CCK8, nM) it was greater than 100 nM; in data set [3] (MTT or CCK8, nM), greater than 10 nM; in data set [4] (U-937, 72 h, MTT or CCK8, nM), greater than 100 nM; in data set [5] (imatinib-resistant K562R) it was 1.22 µM. Further, the GI50 in data set [6] (setting [10]) came to 1.86 µM.

On to `Cc1cn(-c2cc(NC(=O)c3ccc(C)c(C#Cc4cnc(N)nc4)c3)cc(C(F)(F)F)c2)cn1` [D803, 3-(2-(2-aminopyrimidin-5-yl)ethynyl)-4-methyl-N-(3-(4-methyl-1H-imidazol-1-yl)-5-(trifluoromethyl)phenyl)benzamide], for which the IC50 is 1.52 nM in data set [1]; greater than 100 nM in data set [2]; 132 nM in data set [3]; 147 nM in data set [4] (U-937, 72 h); 0.0633 µM in data set [5]. Moreover, the GI50 in data set [6] (setting [9]) is 0.124 µM and 0.0858 µM.

For the compound `CNc1ncc(C#Cc2cc(C(=O)Nc3cc(-n4cnc(C)c4)cc(C(F)(F)F)c3)ccc2C)cn1` [D800, 4-methyl-N-(3-(4-methyl-1H-imidazol-1-yl)-5-(trifluoromethyl)phenyl)-3-(2-(2-(methylamino)pyrimidin-5-yl)ethynyl)benzamide], the IC50 is 1.1 nM in data set [1]; greater than 100 nM in data set [2]; greater than 100 nM in data set [3]; greater than 100 nM in data set [4] (U-937, 72 h); 0.0897 µM in data set [5]. The GI50 in data set [6] (setting [9]) was 0.0998 µM. For the same compound, in data set [8] (corresponding pharmaceutical acceptable salt forms), the “pharmacokinetics parameters, overall judgement” value is listed as “adequate pharmacokinetics parameters”.

`Cc1cn(-c2cc(NC(=O)c3ccc(C)c(C#Cc4cnc(N5CCCCC5)nc4)c3)cc(C(F)(F)F)c2)cn1` [D797, 4-methyl-N-(3-(4-methyl-1H-imidazol-1-yl)-5-(trifluoromethyl)phenyl)-3-(2-(2-(piperidin-1-yl)pyrimidin-5-yl)ethynyl)benzamide]: the IC50 in data set [1] is greater than 100 nM; in data set [2] it was greater than 100 nM; in data set [3] it was greater than 10 nM; in data set [4] (U-937, 72 h), greater than 100 nM; in data set [5], 3.37 µM. Further, in data set [6] (setting [9]), the GI50 is 13 µM.

Turning to `Cc1ncn(-c2cc(NC(=O)c3ccc(C)c(C#Cc4cnc5ccnn5c4)c3)cc(C(F)(F)F)c2)n1` [D818, 4-methyl-N-(3-(3-methyl-1H-1,2,4-triazol-1-yl)-5-(trifluoromethyl)phenyl)-3-(2-(pyrazolo[1,5-a]pyrimidin-6-yl)ethynyl)benzamide], the IC50 was 1.38 nM in data set [1] (MTT or CCK8, nM); 210 nM in data set [2] (MTT or CCK8, nM); greater than 100 nM in data set [3] (MTT or CCK8, nM); greater than 100 nM in data set [4] (U-937, 72 h, MTT or CCK8, nM); 0.142 µM in data set [5] (imatinib-resistant K562R). Besides, the GI50 in data set [6] (setting [10]) amounted to 0.394 µM.

For `Cc1cn(-c2cc(NC(=O)c3ccc(C)c(C#Cc4cnc5nccn5c4)c3)cc(C(F)(F)F)c2)cn1` [D799, 3-(2-(imidazo[1,2-a]pyrimidin-6-yl)ethynyl)-4-methyl-N-(3-(4-methyl-1H-imidazol-1-yl)-5-(trifluoromethyl)phenyl)benzamide], the IC50 is 36.2 nM in data set [1] (MTT or CCK8, nM); greater than 100 nM in data set [2] (MTT or CCK8, nM); greater than 100 nM in data set [3] (MTT or CCK8, nM); greater than 100 nM in data set [4] (U-937, 72 h, MTT or CCK8, nM); 0.612 µM in data set [5] (imatinib-resistant K562R). Further, in data set [6] (setting [10]), the GI50 was greater than 10 µM.

In general, Tmax refers to the time at which the peak concentration occurs. A word on the Cmax: it is the highest concentration seen after dosing.

The record behind these values is US8846671B2, “Heterocyclic alkynyl benzene compounds and medical compositions and uses thereof” (Guangzhou Institute of Biomedicine and Health, Chinese …, priority 2010, dated 2014).
